We go through 10 compounds from patent publication US11198673B2, “Therapeutic compounds and compositions” (eXIthera Pharmaceuticals, Inc., priority 2014, dated 2021).

Molecules are shown by their SMILES. In brackets after ≈: the same amount, converted by molar mass. Bounds are passed on as bounds.

Usually solubility stands for the concentration that dissolves in the medium under given conditions. What is called IC50 is the concentration needed to halve the response being measured.

Data set [1] is described as follows: physchem. The format is physicochemical. The conditions noted are these: pH 7.4, aqueous buffer, kinetic from dmso stock. As to the method:
The test compound was prepared at 200 μM in PBS from a 10 mM DMSO stock solution. The final DMSO concentration was 2%. The PBS buffer samples were mixed thoroughly followed by incubation at room temperature for 24 h. At the end of the incubation, the PBS buffer samples were centrifuged and supernatants analyzed by HPLC.

Data set [2] addresses T1, Thrombin (Homo sapiens, UniProt P00734).
T1 construct: Thrombin; 0.2 μM in 50% glycerol (7.34 μg/mL)
Put plainly: Dose response assay for protease inhibitors: thrombin (FXIa fold selectivity). The conditions noted are these: fold selectivity for FXIa over thrombin. The format is biochemical.

Data set [3] has as its target T2, Factor Xa (Homo sapiens, UniProt P00742).
T2 construct: Factor Xa; 0.2 μM in 50% glycerol (9.2 μg/mL)
The data set can be described thus: Dose response assay for protease inhibitors: Factor Xa (FXIa fold selectivity). The format is biochemical. The settings on record: fold selectivity for FXIa over Factor Xa.

The nature of data set [4]: β-Lactam stability in rat plasma. The format is in vitro ADME. The settings on record: normal rat plasma, room temperature; read-out: Rat Plasma Stability (T1/2; min). A digest of the protocol:
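Compounds incubated in normal rat plasma at room temperature, sampled into acetonitrile from 2 to 480 min. Supernatants analysed by HPLC-MS on C18, extracted ion chromatograms of parent and parent+18 (H2O adduct) integrated; T½ = ln(2)/k from single-phase exponential decay fit.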

Data set [5] deals with Trypsin. Put plainly: Dose response assay for protease inhibitors: trypsin (FXIa fold selectivity). It counts as biochemical. The settings on record: fold selectivity for FXIa over trypsin.
The target of data set [6] is T3, human Factor XIa (Homo sapiens, UniProt P03951).
T3 construct: Enzyme: Factor XIa; 0.25 μM in 50% glycerol (20 μg/mL)
T3 sequence (P03951 388-625 limits assumed): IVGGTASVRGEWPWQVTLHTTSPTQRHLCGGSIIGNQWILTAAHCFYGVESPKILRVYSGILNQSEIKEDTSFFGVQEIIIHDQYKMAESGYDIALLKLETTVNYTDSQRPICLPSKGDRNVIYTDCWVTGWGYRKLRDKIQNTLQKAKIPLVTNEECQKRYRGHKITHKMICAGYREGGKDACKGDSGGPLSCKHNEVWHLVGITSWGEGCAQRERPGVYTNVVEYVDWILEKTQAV
T3 sequence (P03951 19-387 partner limits assumed): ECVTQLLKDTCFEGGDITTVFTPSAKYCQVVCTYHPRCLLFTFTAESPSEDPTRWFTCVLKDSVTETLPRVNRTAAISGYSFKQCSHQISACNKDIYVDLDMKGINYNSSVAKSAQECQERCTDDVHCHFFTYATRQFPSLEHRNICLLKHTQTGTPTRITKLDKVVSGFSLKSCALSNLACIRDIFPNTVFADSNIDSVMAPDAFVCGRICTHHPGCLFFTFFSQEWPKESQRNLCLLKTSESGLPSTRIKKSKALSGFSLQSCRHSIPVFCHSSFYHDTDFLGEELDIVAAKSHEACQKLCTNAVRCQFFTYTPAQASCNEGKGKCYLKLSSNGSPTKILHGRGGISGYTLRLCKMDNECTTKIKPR
Put plainly: Factor XIa enzyme inhibition assay (IC50, purified enzyme). The settings on record: purified enzyme 0.25 nM, substrate 50 μM; read-out: Potency hFXIa IC50. It counts as biochemical. A digest of the protocol:
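Fluorogenic Glp-Pro-Arg-AMC cleavage, 50 μM substrate, 0.25 nM enzyme, in 20 mM Hepes pH 7.4, 150 mM NaCl, 0.02% Tween 20. Serial two-fold compound dilutions from starting concentrations of 20, 2 and 0.2 μM. Read every minute for 30 min at 30° C; IC50 from a four-parameter fit of dose-response.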

Data set [7] can be described thus: in vitro. How it is done:
The following procedure was used to determine the plasma protein binding of a test compound in pooled plasma from human (mixed gender) via equilibrium dialysis in a 96-well plate format. The dialysate compartment is loaded with phosphate-buffered saline (pH 7.4) and the sample side is loaded with plasma spiked with the test compound at a concentration of 10 μM. After loading, samples are covered and incubated for 4 hours at 37° C. After incubation, each compartment is sampled, diluted with acetonitrile/buffer and centrifuged. The supernatants are analyzed by HPLC-MS/MS. The amount measured in the plasma compartment includes both free and bound drug, while that on the buffer side represents free drug only; the differences are used to calculate the percentage plasma protein bound.

T2 sequence (P00742 235-488 limits assumed): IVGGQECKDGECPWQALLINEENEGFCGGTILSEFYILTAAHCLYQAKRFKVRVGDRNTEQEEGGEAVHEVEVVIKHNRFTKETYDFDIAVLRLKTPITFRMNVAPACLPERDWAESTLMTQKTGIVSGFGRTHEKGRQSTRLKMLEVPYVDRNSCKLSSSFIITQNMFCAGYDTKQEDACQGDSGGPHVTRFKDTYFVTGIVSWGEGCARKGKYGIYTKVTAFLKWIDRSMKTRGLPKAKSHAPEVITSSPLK
T2 sequence (P00742 41-179 partner limits assumed): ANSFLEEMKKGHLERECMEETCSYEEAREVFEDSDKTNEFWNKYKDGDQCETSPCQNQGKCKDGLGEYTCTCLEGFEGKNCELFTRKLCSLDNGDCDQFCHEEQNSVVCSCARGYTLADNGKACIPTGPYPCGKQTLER

In data set [1], `CCOC(=O)[C@@H]1[C@@H](Cc2ccnc(NC(=O)OCOC(=O)C(C)C)c2)C(=O)N1C(=O)N[C@H](C)c1ccc2c(c1)OC(F)(F)O2` [Example 92] had a solubility at 4 h of 1 to 10 µM (≈ 0.621 to 6.21 µg/mL). Moreover, the “FXIa Fold Selectivity Thrombin” value in data set [2] was “I (“I” indicates >1000)”. In addition, the “FXIa Fold Selectivity FXa” value in data set [3] is given as “H (“H” indicates 500-1000)”. The half-life in data set [4] is under 1.67 h. Besides, the “FXIa Fold Selectivity Trypsin” value in data set [5] is given as “I (“I” indicates >1000)”. Besides, in data set [6], the 50% inhibitory concentration (IC50) was 10 to 100 nM.
For the compound `CCOC(=O)[C@@H]1[C@@H](Cc2ccnc(NC(=O)OCOC(=O)C(C)C)c2)C(=O)N1C(=O)N[C@@H](C1CCCCC1)C(F)(F)F` [Example 140], the “FXIa Fold Selectivity Thrombin” value in data set [2] is listed as “I (“I” indicates >1000)”. The “FXIa Fold Selectivity FXa” value in data set [3] is given as “I (“I” indicates >1000)”. Moreover, the half-life in data set [4] is under 1.67 h. Moreover, in data set [5], the “FXIa Fold Selectivity Trypsin” value was “G (“G” indicates 1-500)”. In addition, in data set [6], the IC50 lay within 10 to 100 nM.
As to `CCOC(=O)[C@@H]1[C@@H](Cc2ccnc(NC(=O)[C@H](C)N)c2)C(=O)N1C(=O)N[C@H](C)c1ccc2c(c1)OC(F)(F)O2` [Example 148], the “FXIa Fold Selectivity Thrombin” value in data set [2] is “G (“G” indicates 1-500)”. Moreover, the “FXIa Fold Selectivity FXa” value in data set [3] is recorded as “G (“G” indicates 1-500)”. In addition, in data set [4], the half-life is under 1.67 h. The “FXIa Fold Selectivity Trypsin” value in data set [5] was “G (“G” indicates 1-500)”. Further, in data set [6], the half-inhibitory concentration (IC50) is 100 to 1000 nM.
On to `O=C(O)[C@@H]1[C@@H](CCc2cccc(Cl)c2F)C(=O)N1C(=O)N[C@@H](C1CCCCC1)C(F)(F)F` [Example 156], for which, in data set [2], the “FXIa Fold Selectivity Thrombin” value is “I (“I” indicates >1000)”. Moreover, the “FXIa Fold Selectivity FXa” value in data set [3] was “H (“H” indicates 500-1000)”. Besides, in data set [4], the half-life is over 1.67 h. Moreover, the “FXIa Fold Selectivity Trypsin” value in data set [5] is “I (“I” indicates >1000)”. For the same compound, the IC50 in data set [6] lay within 100 to 1000 nM.
Regarding `CCOC(=O)[C@@H]1[C@@H](Cc2ccnc(N)c2)C(=O)N1C(=O)N[C@@H](C)c1ccc2c(c1)OC(F)(F)O2` [Example 166], the “FXIa Fold Selectivity Thrombin” value in data set [2] is on record as “I (“I” indicates >1000)”. Further, in data set [3], the “FXIa Fold Selectivity FXa” value is on record as “H (“H” indicates 500-1000)”. The half-life in data set [4] was under 1.67 h. Moreover, the “FXIa Fold Selectivity Trypsin” value in data set [5] is “G (“G” indicates 1-500)”. For the same compound, in data set [6], the half-maximal inhibitory concentration (IC50) was under 10 nM.
The corresponding values for `C[C@@H](NC(=O)N1C(=O)[C@H](Cc2ccnc(N)c2)[C@H]1C(=O)O)c1ccc(OC(F)(F)F)cc1` [Example 168] are “I (“I” indicates >1000)”, “I (“I” indicates >1000)”, over 1.67 h, “I (“I” indicates >1000)” and under 10 nM.
The corresponding values for `CCOC(=O)[C@@H]1[C@@H](Cc2ccncc2)C(=O)N1C(=O)N[C@H](C)c1ccc2c(c1)OC(F)(F)O2` [Example 170] are “G (“G” indicates 1-500)”, “G (“G” indicates 1-500)”, under 1.67 h, “G (“G” indicates 1-500)” and 10 to 100 nM.
For `CCCC(=O)Nc1ccc(OCC(O)CNC(C)C)c(C(C)=O)c1` (stereo not drawn) [acebutolol, reference compound], the “binding of reference compounds to human plasma proteins” value in data set [7] was “low”.
`COCCc1ccc(OCC(O)CNC(C)C)cc1` (stereo not drawn) [metoprolol, reference compound] showed a solubility at 24 h in data set [1] of 200 µM (≈ 53.5 µg/mL).
Take `C=C[C@H]1C[N@@]2CC[C@H]1C[C@@H]2[C@@H](O)c1ccnc2ccc(OC)cc12` [quinidine, reference compound]: the “binding of reference compounds to human plasma proteins” value in data set [7] was “medium”.
